Data on 13 molecules can be found in patent US20240116896A1 (ATAI Life Sciences AG, priority 2022, published 2024).

Each structure is given as a SMILES string. Bounds are passed on as bounds.

Holding throughout (assay type): cell-based
Assay [1] concerns the target T1, 5-HT2A (Homo sapiens, UniProt P28223). Put plainly: Calcium mobilization (Ca++ flux) assay, agonist mode, 5-HT2A. As to conditions: for 5-HT2A, Ca++ flux % activation @30 uM: relative to MAX serotonin control. An excerpt: (§1) Calcium Mobilization Assay Method (Performed by DiscoveRx Eurofins)
(§2) The Calcium No-Wash^PLUS assay monitors the activation of a GPCR via Gq secondary messenger signaling in a live cell, non-imaging assay format. Calcium mobilization in PathHunter® cell lines or other cell lines stably expressing Gq-coupled GPCRs is monitored using a calcium-sensitive dye that is loaded into cells. GPCR activation by a compound results in the release of calcium from intracellular stores and an increase in dye fluorescence that is measured in real-time.
(§3) Cell lines expressing the GPCR of interest were expanded from freezer stocks according to standard procedures. Cells were seeded in a total volume of 20 μL into black-walled, clear-bottom, Poly-D-lysine coated 384-well microplates and incubated at 37° C. for the appropriate time prior to testing.
(§4) Assays were performed in 1× Dye Loading Buffer consisting of 1× Dye, 1× Additive A and 2.5 mM Probenecid in HBSS/20 mM Hepes. Probenicid was prepared fresh. Cells were loaded with dye prior to testing. Media was aspirated from cells and replaced with 20 μL Dye Loading Buffer. Cells were incubated for 30-60 minutes at 37° C.
(§5) For agonist determination, cells were incubated with sample to induce response. After dye loading, cells were removed from the incubator and 10 μL HBSS/20 mM Hepes was added. 3× vehicle was included in the buffer when performing agonist dose curves to define the EC80 for subsequent antagonist assays. Cells were incubated for 30 minutes at room temperature in the dark to equilibrate plate temperature.
(§6) Intermediate dilution of sample stocks was performed to generate 4× sample in assay buffer. Compound agonist activity was measured on a FLIPR Tetra (MDS). Calcium mobilization was monitored for 2 minutes and 10 μL 4× sample in HBSS/20 mM Hepes was added to the cells 5 seconds into the assay.
(§7) Compound activity data was analyzed using CBIS data analysis suite (ChemInnovation, CA). For agonist mode assays, percentage activity is calculated using the following formula:
(§8) % Activity=100%×(mean RFU of test sample−mean RFU of vehicle control)/(mean MAX RFU control ligand−mean RFU of vehicle control).
(§9) In these studies, the MAX RFU was generated by using 0.1 mM serotonin for the calcium mobilization assay.
Background: Calcium flux is commonly read through the fluorescence of an indicator in the cells.

Assay [2] deals with T1, 5-HT2A. Description: IPOne (IP1 HTRF) assay, CHO-K1 cells expressing human 5-HT2A. More on the design: expressed in transfected cells; host or cells: CHO-K1. The settings on record: for activation at 0.3 µM / activation at 30 µM: CHO-K1, percentage of reference agonist α-Me-5-HT at its EC100; for EC50: CHO-K1, human 5-HT2A. The protocol: (§10) IPOne assays were performed using stably-transfected cell lines (CHO-K1) expressing human 5-HT2A or 5-HT2B receptors. Upon activation of these receptors, Gq-mediated myo-Inositol 1 phosphate (IP1) production is detected by a Homogeneous Time-Resolved Fluorescence (HTRF) competitive immunoassay, whereby an IP1 analog coupled to a fluorophore (acceptor) competes with endogenous IP1 for binding to a labeled anti-IP1 antibody (donor). The resulting signal is inversely proportional to the concentration of IP1 in the sample. Cells were incubated with an IP1 inhibitor (to prevent degradation and allow detection) and either reference compound or test compound. α-Me-5-HT was used as the assay reference agonist. Activation of 5-HT2A or 5-HT2B receptors was measured via accumulation of IP1 detected by HTRF. Agonist activity of test compounds was expressed as a percentage of the activity of the reference agonist at its EC100 concentration.

Assay [3] addresses T1, 5-HT2A. Put plainly: PathHunter b-arrestin assay, agonist mode, 5-HT2A. An excerpt: GPCR Arrestin Assay Methods
Arrestin Pathway (Performed by DiscoverX Eurofins)
The PathHunter® β-Arrestin assay monitors the activation of a GPCR in a homogenous, non-imaging assay format using a technology developed by DiscoverX called Enzyme Fragment Complementation (EFC) with β-galactosidase (β-Gal) as the functional reporter. […] EA is fused to β-Arrestin and PK is fused to the GPCR of interest.
When the GPCR is activated and β-Arrestin is recruited to the receptor, ED and EA complementation occurs, restoring β-Gal activity which is measured using chemiluminescent PathHunter® Detection Reagents.
PathHunter cell lines (DiscoveRx Eurofins) were expanded from freezer stocks according to standard procedures. Cells were seeded in a total volume of 20 μL into white walled, 384-well microplates and incubated at 37° C. for the appropriate time prior to testing. […]
b-Arrestin assay signal was generated through a single addition of 12.5 or 15 μL (50% v/v) of PathHunter Detection reagent cocktail, followed by a one-hour incubation at room temperature. Microplates were read following signal generation with a PerkinElmer Envision™ instrument for chemiluminescent signal detection.
Compound activity was analyzed using CBIS data analysis suite (ChemInnovation, CA). For agonist mode assays, percentage activity was calculated using the following formula: […]

Assay [4] addresses T2, 5-HT2B (Homo sapiens, UniProt P41595). Put plainly: IPOne (IP1 HTRF) assay, CHO-K1 cells expressing human 5-HT2B. The settings on record: for activation at 0.3 µM / activation at 30 µM: CHO-K1, percentage of reference agonist α-Me-5-HT at its EC100; for EC50: CHO-K1, human 5-HT2B. Further details: expressed in transfected cells; host or cells: CHO-K1. On the procedure: as §10

The next assay has as its target T3, 5-HT2C (Homo sapiens, UniProt P28335).
T3 sequence (P28335 33-458): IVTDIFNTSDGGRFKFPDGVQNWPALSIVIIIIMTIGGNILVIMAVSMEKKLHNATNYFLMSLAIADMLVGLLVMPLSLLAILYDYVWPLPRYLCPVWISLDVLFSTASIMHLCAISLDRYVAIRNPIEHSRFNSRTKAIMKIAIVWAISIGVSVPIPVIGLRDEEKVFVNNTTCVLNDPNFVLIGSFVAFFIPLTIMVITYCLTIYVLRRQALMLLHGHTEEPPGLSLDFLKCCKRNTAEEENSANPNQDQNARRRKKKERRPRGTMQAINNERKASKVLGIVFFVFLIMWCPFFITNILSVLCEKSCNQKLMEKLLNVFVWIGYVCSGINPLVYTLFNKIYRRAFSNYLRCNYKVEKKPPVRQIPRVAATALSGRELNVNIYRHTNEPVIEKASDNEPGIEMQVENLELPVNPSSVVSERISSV
Put plainly: Calcium mobilization (Ca++ flux) assay, agonist mode, 5-HT2C.
Text: as §1, §2
Cell lines expressing the GPCR of interest were expanded from freezer stocks according to standard procedures. Cells were seeded in a total volume of 20 μL into black-walled, clear-bottom, Poly-D-lysine coated 384-well microplates and incubated at 37° C. for the appropriate time prior to testing. […]
as §6
Compound activity data was analyzed using CBIS data analysis suite (ChemInnovation, CA). For agonist mode assays, percentage activity is calculated using the following formula: […]

Assay [5] has as its target T2, 5-HT2B. Description: Calcium mobilization (Ca++ flux) assay, agonist mode, 5-HT2B. The settings on record: for 5-HT2B, Ca++ flux % activation @30 uM: relative to MAX serotonin control; for EC50: agonist mode.
Text: as §1, §2, §3, §4, §5, §6, §7, §8, §9

T1 sequence (P28223 whole entry): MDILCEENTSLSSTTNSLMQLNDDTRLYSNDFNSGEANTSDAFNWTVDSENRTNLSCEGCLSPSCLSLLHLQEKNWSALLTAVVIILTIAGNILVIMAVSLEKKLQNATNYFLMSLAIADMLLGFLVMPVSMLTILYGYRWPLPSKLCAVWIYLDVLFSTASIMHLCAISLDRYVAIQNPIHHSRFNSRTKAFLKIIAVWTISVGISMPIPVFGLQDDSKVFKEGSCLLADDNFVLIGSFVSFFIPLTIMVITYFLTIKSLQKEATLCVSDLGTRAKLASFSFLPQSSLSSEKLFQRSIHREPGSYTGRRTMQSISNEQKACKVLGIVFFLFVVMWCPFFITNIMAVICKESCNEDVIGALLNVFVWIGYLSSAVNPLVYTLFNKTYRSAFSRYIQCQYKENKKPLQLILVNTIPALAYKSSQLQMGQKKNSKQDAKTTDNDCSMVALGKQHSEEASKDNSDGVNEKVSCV
T2 sequence (P41595 whole entry): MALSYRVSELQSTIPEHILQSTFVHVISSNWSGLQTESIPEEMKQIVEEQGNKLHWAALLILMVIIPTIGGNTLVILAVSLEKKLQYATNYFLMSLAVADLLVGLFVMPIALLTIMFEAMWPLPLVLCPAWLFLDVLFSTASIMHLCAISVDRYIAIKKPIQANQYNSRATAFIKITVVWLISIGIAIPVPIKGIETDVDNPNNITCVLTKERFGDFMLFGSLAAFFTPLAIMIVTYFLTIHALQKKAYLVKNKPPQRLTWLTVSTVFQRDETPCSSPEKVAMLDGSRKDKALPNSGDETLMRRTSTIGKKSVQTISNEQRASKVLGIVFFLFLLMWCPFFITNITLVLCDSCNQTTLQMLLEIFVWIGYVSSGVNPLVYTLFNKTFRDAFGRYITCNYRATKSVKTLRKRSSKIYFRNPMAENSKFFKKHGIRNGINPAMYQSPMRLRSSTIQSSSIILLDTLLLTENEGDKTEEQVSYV

A word on the EC50: it is the concentration giving half of the maximal effect. For `CN(CCO)CCc1c[nH]c2ccccc12` [Compound 6, 2-((2-(1H-indol-3-yl)ethyl)(methyl)amino)ethan-1-ol], at 5-HT2A [1], the EC50 came out at 101 nM and the “5-HT2A, Ca++ flux % activation @30 uM” value turned out to be 42.83%.

`OCC1CCCN1CCc1c[nH]c2ccccc12` (stereo not drawn) [Compound 3, (1-(2-(1H-indol-3-yl)ethyl)pyrrolidin-2-yl)methanol]: the activation at 0.3 µM at 5-HT2A [2] worked out at 47.9%; on 5-HT2B [4] it was 25.9%. Further, the results for the activation at 30 µM at 5-HT2A [2] and at 5-HT2B [4] were 97.5% and 93.9%, respectively. The EC50 at 5-HT2A [3] is 1150 nM; on 5-HT2C, 498 nM; on 5-HT2B [5], above 30000 nM; at 5-HT2A [1], 103 nM. Also, the “5-HT2B, Ca++ flux % activation @30 uM” value on 5-HT2B [5] worked out at 23.51%. At 5-HT2A [1], the “5-HT2A, Ca++ flux % activation @30 uM” value is reported as 94.73%.

Turning to `COC(=O)CN(C)CCc1c[nH]c2ccccc12` [Compound 4, methyl N-(2-(1H-indol-3-yl)ethyl)-N-methylglycinate], at 5-HT2A [1], the EC50 is 302 nM and the “5-HT2A, Ca++ flux % activation @30 uM” value was determined as 36.92%.

In the case of `O=C(O)C1CCCN1CCc1c[nH]c2ccccc12` (stereo not drawn) [Compound 2, (2-(1H-indol-3-yl)ethyl)proline], at 5-HT2A [1], the EC50 was above 30000 nM and the “5-HT2A, Ca++ flux % activation @30 uM” value was determined as 2.41%.

As to `CN(CCc1c[nH]c2ccccc12)CC(=O)O` [Compound 5, N-(2-(1H-indol-3-yl)ethyl)-N-methylglycine], on 5-HT2A [1], the EC50 was above 30000 nM and the “5-HT2A, Ca++ flux % activation @30 uM” value was 24.51%.

Take `C[C@H](O)[C@@H]1CCCN1CCc1c[nH]c2ccccc12` [Compound 73, (S)-1-((S)-1-(2-(1H-indol-3-yl)ethyl)pyrrolidin-2-yl)ethan-1-ol]: on 5-HT2A [2], the EC50 was determined as 557 nM, the activation at 0.3 µM is 61.9% and the activation at 30 µM amounted to 101%. On 5-HT2B [4], this molecule displayed an EC50 of 958 nM, an activation at 0.3 µM of 61.2% and an activation at 30 µM of 104%.

In the case of `COc1cccc2[nH]c(Br)c(CCN3CCCC3CO)c12` (stereo not drawn) [Compound 67, (1-(2-(2-bromo-4-methoxy-1H-indol-3-yl)ethyl)pyrrolidin-2-yl)methanol], the values for the activation at 0.3 µM at 5-HT2A [2] and on 5-HT2B [4] were 27.2% and 19.2%, respectively. Further, the activation at 30 µM at 5-HT2A [2] came to 95.9%; on 5-HT2B [4], 87.1%.

Consider `C[C@@H](O)[C@@H]1CCCN1CCc1c[nH]c2ccccc12` [Compound 75], for which, at 5-HT2A [2], the activation at 0.3 µM is 23.4% and the activation at 30 µM stood at 87.3%. At 5-HT2B [4], this molecule showed an activation at 0.3 µM of 5.88% and an activation at 30 µM of 80.2%.

On 5-HT2A [2], `CC(C)(O)[C@@H]1CCCN1CCc1c[nH]c2ccccc12` [Compound 74, 2-[(2S)-1-[2-(1H-indol-3-yl)ethyl]pyrrolidin-2-yl] propan-2-ol] came in with an EC50 of 247 nM, an activation at 0.3 µM of 80.2% and an activation at 30 µM of 102%. At 5-HT2B [4], a half-maximal response (EC50) required 526 nM, the activation at 0.3 µM turned out to be 63% and the activation at 30 µM was 100%.

With `OC[C@@H]1CCN1CCc1c[nH]c2ccccc12` [Compound 54, (S)-(1-(2-(1H-indol-3-yl)ethyl)azetidin-2-yl)methanol], at 5-HT2A [2], the concentration for a half-maximal effect (EC50) came to 249 nM, the activation at 0.3 µM is 81.1% and the activation at 30 µM is 101%. On 5-HT2B [4], this molecule yielded an EC50 of 780 nM, an activation at 0.3 µM of 62% and an activation at 30 µM of 97.9%.

On to `CC[C@@H](O)[C@@H]1CCCN1CCc1c[nH]c2ccccc12` [Compound 77, (R)-1-((S)-1-(2-(1H-indol-3-yl)ethyl)pyrrolidin-2-yl)propan-1-ol], for which the activation at 0.3 µM was found to be 23.9% on 5-HT2A [2] and 18.2% at 5-HT2B [4]. The activation at 30 µM on 5-HT2A [2] is 90.6%; at 5-HT2B [4] it was 86.7%.

On to `COC(=O)C1CCCN1CCc1c[nH]c2ccccc12` (stereo not drawn) [Compound 1, methyl (2-(1H-indol-3-yl)ethyl)prolinate], for which the EC50 on 5-HT2A [3] is 16100 nM; on 5-HT2C it was 4160 nM; at 5-HT2B [5] it was above 30000 nM; on 5-HT2A [1], 987 nM. Moreover, on 5-HT2B [5], the “5-HT2B, Ca++ flux % activation @30 uM” value is 11.15%. Also, the “5-HT2A, Ca++ flux % activation @30 uM” value at 5-HT2A [1] is reported as 78.24%.

On to `OC[C@@H]1CCCN1CCc1c[nH]c2ccc(OC(F)(F)F)cc12` [Compound 61, (S)-(1-(2-(5-(trifluoromethoxy)-1H-indol-3-yl)ethyl)pyrrolidin-2-yl)methanol], for which, on 5-HT2A [2], the response was half-maximal at 76 nM (EC50), the activation at 0.3 µM stood at 46.1% and the activation at 30 µM was found to be 88.3%. Also, on 5-HT2B [4], a half-maximal response (EC50) required 57.7 nM, the activation at 0.3 µM was 37.5% and the activation at 30 µM amounted to 76.2%.
